Assay results: ChEMBL document CHEMBL3792297, “Studies on phenothiazines: New microtubule-interacting compounds with phenothiazine A-ring as potent antineoplastic agents” (Bioorg Med Chem, 2016)
pIC50: −log10 of the molar value.

Tests used:
[1] = Growth inhibition of human SF539 cells at 10 uM after 48 hrs by SRB assay relative to control; format: functional; settings: SF-539, 48 h, read-out: GI
[2] = Growth inhibition of human OVCAR5 cells at 10 uM after 48 hrs by SRB assay relative to control; format: functional; settings: OVCAR-5, 48 h, read-out: GI
[3] = Growth inhibition of human NCI-ADR-RES cells after 48 hrs by SRB assay; format: functional
[4] = Growth inhibition of human SF295 cells after 48 hrs by SRB assay; format: functional; settings: SF-295, 48 h
[5] = Growth inhibition of human OVCAR3 cells at 10 uM after 48 hrs by SRB assay relative to control; format: functional; settings: OVCAR-3, 48 h, read-out: GI
[6] = Growth inhibition of human SNB75 cells after 48 hrs by SRB assay; format: functional; settings: SNB-75, 48 h
A498 = test: Growth inhibition of human A498 cells after 48 hrs by SRB assay; format: functional; settings: A498, 48 h
NCI-H522 = test: Growth inhibition of human NCI-H522 cells after 48 hrs by SRB assay; format: functional; settings: NCI-H522, 48 h
T47D = test: Growth inhibition of human T47D cells at 10 uM after 48 hrs by SRB assay relative to control; format: functional; settings: read-out: GI
A549 = test: Growth inhibition of human A549 cells at 10 uM after 48 hrs by SRB assay relative to control; format: functional; settings: A549, 48 h, read-out: GI
ACHN [7] = test: Growth inhibition of human ACHN cells at 10 uM after 48 hrs by SRB assay relative to control; format: functional; settings: read-out: GI
M14 [8] = test: Growth inhibition of human M14 cells after 48 hrs by SRB assay; format: functional; settings: M14, 48 h
[9] = Growth inhibition of human HOP92 cells at 10 uM after 48 hrs by SRB assay relative to control; format: functional; settings: HOP-92, 48 h, read-out: GI
Malme-3M [10] = test: Growth inhibition of human MALME-3M cells after 48 hrs by SRB assay; format: functional
NCI-H23 [11] = test: Growth inhibition of human NCI-H23 cells at 10 uM after 48 hrs by SRB assay relative to control; format: functional; settings: NCI-H23, 48 h, read-out: GI
SR = test: Growth inhibition of human SR cells after 48 hrs by SRB assay; format: functional
[12] = Growth inhibition of human UACC62 cells after 48 hrs by SRB assay; format: functional; settings: UACC-62, 48 h
K562 = test: Growth inhibition of human K562 cells at 10 uM after 48 hrs by SRB assay relative to control; format: functional; settings: K562, 48 h, read-out: GI
[13] = Growth inhibition of human NCI-ADR-RES cells at 10 uM after 48 hrs by SRB assay relative to control; format: functional; settings: read-out: GI
[14] = Growth inhibition of human HCC2998 cells after 48 hrs by SRB assay; format: functional; settings: HCC 2998, 48 h
M14 [15] = test: Growth inhibition of human M14 cells at 10 uM after 48 hrs by SRB assay relative to control; format: functional; settings: M14, 48 h, read-out: GI
[16] = Growth inhibition of human HOP92 cells after 48 hrs by SRB assay; format: functional; settings: HOP-92, 48 h
[17] = Growth inhibition of human SW620 cells at 10 uM after 48 hrs by SRB assay relative to control; format: functional; settings: SW-620, 48 h, read-out: GI
U-251 [18] = test: Growth inhibition of human U251 cells at 10 uM after 48 hrs by SRB assay relative to control; format: functional; settings: U-251, 48 h, read-out: GI
[19] = Growth inhibition of human HCT116 cells after 48 hrs by SRB assay; format: functional; settings: HCT-116, 48 h
U-251 [20] = test: Growth inhibition of human U251 cells after 48 hrs by SRB assay; format: functional; settings: U-251, 48 h
KM12 [21] = test: Growth inhibition of human KM12 cells at 10 uM after 48 hrs by SRB assay relative to control; format: functional; settings: KM12, 48 h, read-out: GI
[22] = Growth inhibition of human SNB19 cells at 10 uM after 48 hrs by SRB assay relative to control; format: functional; settings: SNB-19, 48 h, read-out: GI
[23] = Growth inhibition of human MOLT4 cells at 10 uM after 48 hrs by SRB assay relative to control; format: functional; settings: MOLT-4, 48 h, read-out: GI
[24] = Growth inhibition of human HCT15 cells after 48 hrs by SRB assay; format: functional; settings: HCT-15, 48 h
[25] = Growth inhibition of human HOP62 cells at 10 uM after 48 hrs by SRB assay relative to control; format: functional; settings: HOP-62, 48 h, read-out: GI
SN12C = test: Growth inhibition of human SN12C cells after 48 hrs by SRB assay; format: functional
SK-MEL-5 = test: Growth inhibition of human SK-MEL-5 cells at 10 uM after 48 hrs by SRB assay relative to control; format: functional; settings: SK-MEL-5, 48 h, read-out: GI
[26] = Growth inhibition of human OVCAR5 cells after 48 hrs by SRB assay; format: functional; settings: OVCAR-5, 48 h
[27] = Growth inhibition of human HCC2998 cells at 10 uM after 48 hrs by SRB assay relative to control; format: functional; settings: HCC 2998, 48 h, read-out: GI
CCRF-CEM = test: Growth inhibition of human CCRF-CEM cells after 48 hrs by SRB assay; format: functional
786-0 = test: Growth inhibition of human 786-0 cells after 48 hrs by SRB assay; format: functional; settings: 786-0, 48 h
ACHN [28] = test: Growth inhibition of human ACHN cells after 48 hrs by SRB assay; format: functional
[29] = Growth inhibition of human HL-60(TB) cells after 48 hrs by SRB assay; format: functional; settings: HL-60, 48 h
[30] = Growth inhibition of human BT549 cells at 10 uM after 48 hrs by SRB assay relative to control; format: functional; settings: BT-549, 48 h, read-out: GI
KM12 [31] = test: Growth inhibition of human KM12 cells after 48 hrs by SRB assay; format: functional; settings: KM12, 48 h
[32] = Inhibition of sheep brain tubulin polymerization by DAPI staining-based fluorimetric method; parameters: species or system Ovis aries
[33] = Growth inhibition of human SKOV3 cells after 48 hrs by SRB assay; format: functional; settings: SK-OV-3, 48 h
HT-29 = test: Growth inhibition of human HT-29 cells after 48 hrs by SRB assay; format: functional; settings: HT-29, 48 h
[34] = Growth inhibition of human HCT15 cells at 10 uM after 48 hrs by SRB assay relative to control; format: functional; settings: HCT-15, 48 h, read-out: GI
Malme-3M [35] = test: Growth inhibition of human MALME-3M cells at 10 uM after 48 hrs by SRB assay relative to control; format: functional; settings: read-out: GI
[36] = Growth inhibition of human LOXIMVI cells after 48 hrs by SRB assay; format: functional; settings: LOX IMVI
NCI-H23 [37] = test: Growth inhibition of human NCI-H23 cells after 48 hrs by SRB assay; format: functional; settings: NCI-H23, 48 h

COc1ccc(C(=O)N2c3ccccc3Sc3ccccc32)c(F)c1
inhibition of growth at 10 µM [1]: 100%
inhibition of growth at 10 µM [2]: 38%
GI50 [3]: 517 nM
GI50 [4]: 395 nM
inhibition of growth at 10 µM [5]: 100%
GI50 [6]: 288 nM
GI50 (A498): 330 nM
GI50 (NCI-H522): 403 nM
inhibition of growth at 10 µM (T47D): 60%
inhibition of growth at 10 µM (A549): 73%
inhibition of growth at 10 µM (ACHN [7]): 52%
GI50 (M14 [8]): 371 nM
inhibition of growth at 10 µM [9]: 58%
GI50 (Malme-3M [10]): 16200 nM
inhibition of growth at 10 µM (NCI-H23 [11]): 68%
GI50 (SR): 380 nM
GI50 [12]: 382 nM
inhibition of growth at 10 µM (K562): 87%
inhibition of growth at 10 µM [13]: 98%
GI50 [14]: 2380 nM
inhibition of growth at 10 µM (M14 [15]): 98%
GI50 [16]: 238 nM
inhibition of growth at 10 µM [17]: 85%
inhibition of growth at 10 µM (U-251 [18]): 66%
GI50 [19]: 393 nM
GI50 (U-251 [20]): 615 nM
inhibition of growth at 10 µM (KM12 [21]): 77%
inhibition of growth at 10 µM [22]: 64%
inhibition of growth at 10 µM [23]: 73%
GI50 [24]: 419 nM
inhibition of growth at 10 µM [25]: 63%
GI50 (SN12C): 1940 nM
inhibition of growth at 10 µM (SK-MEL-5): 84%
GI50 [26]: 3660 nM
inhibition of growth at 10 µM [27]: 70%
GI50 (CCRF-CEM): 522 nM
GI50 (786-0): 675 nM
GI50 (ACHN [28]): 831 nM
GI50 [29]: 325 nM
inhibition of growth at 10 µM [30]: 77%
GI50 (KM12 [31]): 489 nM
pIC50 [32]: 4.65
GI50 [33]: 4130 nM
GI50 (HT-29): 380 nM
inhibition of growth at 10 µM [34]: 73%
inhibition of growth at 10 µM (Malme-3M [35]): 53%
GI50 [36]: 727 nM
GI50 (NCI-H23 [37]): 3420 nM

COc1ccc(C(=O)N2c3ccccc3Sc3ccccc32)cc1F
inhibition of growth at 10 µM [1]: 91%
inhibition of growth at 10 µM [2]: 57%
GI50 [3]: 200 nM
GI50 [4]: 251 nM
inhibition of growth at 10 µM [5]: 100%
GI50 [6]: 270 nM
GI50 (A498): 219 nM
GI50 (NCI-H522): 114 nM
inhibition of growth at 10 µM (T47D): 49%
inhibition of growth at 10 µM (A549): 83%
inhibition of growth at 10 µM (ACHN [7]): 50%
GI50 (M14 [8]): 232 nM
inhibition of growth at 10 µM [9]: 45%
GI50 (Malme-3M [10]): 365 nM
inhibition of growth at 10 µM (NCI-H23 [11]): 86%
GI50 (SR): 162 nM
GI50 [12]: 128 nM
inhibition of growth at 10 µM (K562): 82%
inhibition of growth at 10 µM [13]: 100%
GI50 [14]: 470 nM
inhibition of growth at 10 µM (M14 [15]): 92%
GI50 [16]: 1130 nM
inhibition of growth at 10 µM [17]: 80%
inhibition of growth at 10 µM (U-251 [18]): 90%
GI50 [19]: 358 nM
GI50 (U-251 [20]): 353 nM
inhibition of growth at 10 µM (KM12 [21]): 81%
inhibition of growth at 10 µM [22]: 45%
inhibition of growth at 10 µM [23]: 67%
GI50 [24]: 287 nM
inhibition of growth at 10 µM [25]: 50%
GI50 (SN12C): 525 nM
inhibition of growth at 10 µM (SK-MEL-5): 93%
GI50 [26]: 418 nM
inhibition of growth at 10 µM [27]: 82%
GI50 (CCRF-CEM): 287 nM
GI50 (786-0): 609 nM
GI50 (ACHN [28]): 1050 nM
GI50 [29]: 305 nM
inhibition of growth at 10 µM [30]: 83%
GI50 (KM12 [31]): 203 nM
pIC50 [32]: 4.93
GI50 [33]: 306 nM
GI50 (HT-29): 283 nM
inhibition of growth at 10 µM [34]: 76%
inhibition of growth at 10 µM (Malme-3M [35]): 45%
GI50 [36]: 672 nM
GI50 (NCI-H23 [37]): 340 nM
